Measurements reported in patent publication US7576094B2, “Spiro derivatives as lipoxygenase inhibitors” (Eli Lilly and Company, priority 2004, dated 2009).

What was measured:
[1] = target: T1, human recombinant 5-Lipoxygenase (Homo sapiens, UniProt P09917); assay: 5-Lipoxygenase Enzyme Assay; type: biochemical; conditions: 70 μM arachidonic acid, 10 minute incubation at room temperature, FOX reagent, absorbance at 620 nm; read-out: inhibition of 5-Lipoxygenase with an IC50
T1 sequence (P09917 1-674): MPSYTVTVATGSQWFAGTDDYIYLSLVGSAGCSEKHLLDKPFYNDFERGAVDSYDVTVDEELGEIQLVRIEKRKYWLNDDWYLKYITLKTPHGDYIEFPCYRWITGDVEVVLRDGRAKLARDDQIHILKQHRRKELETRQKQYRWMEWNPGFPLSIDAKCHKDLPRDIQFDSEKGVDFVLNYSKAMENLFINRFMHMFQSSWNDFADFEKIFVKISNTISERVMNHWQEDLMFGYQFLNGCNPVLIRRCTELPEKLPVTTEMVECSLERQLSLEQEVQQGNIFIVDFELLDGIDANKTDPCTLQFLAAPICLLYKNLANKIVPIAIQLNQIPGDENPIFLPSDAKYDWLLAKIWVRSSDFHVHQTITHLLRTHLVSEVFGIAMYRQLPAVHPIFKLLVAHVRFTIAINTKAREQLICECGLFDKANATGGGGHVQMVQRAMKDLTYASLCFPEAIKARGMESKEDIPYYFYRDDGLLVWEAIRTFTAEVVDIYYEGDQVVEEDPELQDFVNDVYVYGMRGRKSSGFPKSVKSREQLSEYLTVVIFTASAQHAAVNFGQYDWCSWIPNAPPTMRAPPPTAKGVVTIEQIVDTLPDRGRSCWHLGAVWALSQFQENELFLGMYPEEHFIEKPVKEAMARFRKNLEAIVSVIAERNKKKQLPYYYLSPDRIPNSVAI
Outline: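 Recombinant human 5-LOX in 50 mM Tris-HCl pH 7.4 was preincubated with compound, then 70 μM arachidonic acid was added for 10 min at room temperature. Hydroperoxide was read by FOX reagent (ferric xylenol orange, 1 h complex formation) as absorbance at 620 nm. Five concentrations in triplicate were tested, starting at 10 μM.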

[2] = system: LTB4 production in human whole blood; assay: Inhibition of LTB4 Production in Blood; type: cell-based; conditions: 1 h, 20 μM A23187, 60 minutes at 37° C., LTB4 in plasma by ELISA, read-out: protection against LTB4 at an EC50
Protocol: • Human whole blood (Na citrate) (Stanford Blood Center) • A23187, (Sigma, Cat# C-7522) • Leukotriene B4 EIA reagents (Cayman Chemical, Cat # 520111) • BWA4C (Sigma, Cat # B7559) Procedure Preparation of A23187:
A23187 was prepared as a 10 mM stock solution in DMSO (aliquots can be stored at −20° C.). On the day of the assay the stock solution was diluted as follows: 70 μL 10 mM stock added to 1.6 mL plasma to give a working concentration of 0.42 mM.
From a 30 mM stock solution in DMSO, test articles were diluted to a working concentration of 600 μM in PBS (i.e. 10 μL stock solution+490 μL PBS). This is the highest concentration (gives a final testing concentration of 30 μM). From this 600 μM solution test articles were serially diluted 1:3 in PBS to give a dose-response curve. 10 μL of each concentration of test article was then added to 4 wells of a 96-well plate (i.e. testing in quadruplicate). A positive control compound, BWA4C was used in every assay.
Human whole blood was added to the plates containing compounds (190 μL per well) and mixed well. The blood was incubated with compound at 37° C. for 15 minutes. Following this incubation, 10 μL of 0.42 mM A23187 was added to each well except the negative control wells to give a final calcium ionophore concentration of 20 μM. The plates were then incubated at 37° C. for 60 minutes. After the incubation period, plates were centrifuged for 15 min at 2000 g at 4° C. in sealed microplate buckets. Plasma was then removed for quantitation of LTB4 levels by ELISA.
LTB4 levels in the plasma were determined using a commercially available ELISA kit from Cayman Chemicals. The ELISA was run according to the manufacturer's instructions. The LTB4 levels in the vehicle control sample were then compared to those in which the test article had been added. From this a percent inhibition of LTB4 production by each concentration of test article was calculated and the IC50 was determined.

[3] = system: release of the leukotriene LTB4 from a neutrophil cell line (MPRO cell line); assay: LTB4-Cell Assay; type: cell-based; conditions: Mus musculus, 1 h, read-out: inhibition of LTB4 with an EC50
From the text: • This procedure was used for measuring the release of the leukotriene LTB4 from a neutrophil cell line using a competitive ELISA technique. Materials and Equipments Materials for Cell Preparation and Experiment • MPRO cell line (ATCC, Catalog # CRL-11422) • Calcium ionophore (A23187) (Sigma, Catalog # C7522) • Nordihydroguaiaretic acid (NDGA) (BioMol ,Catalog # EI101-0001) • Retinoic Acid (all-trans) (ATRA) (Sigma, Catalog # 95152) • Sterile, tissue-culture treated 96-well plates (Corning, Catalog # 3614) Materials for LTB4 ELISA • Precoated (Mouse Anti-Rabbit IgG) EIA 96 Well Strip Plates (Cayman, Catalog # 400004) • Leukotriene B4 AChE Tracer (Cayman Catalog # 420110) • Leukotriene B4 EIA Antiserum (Cayman Catalog # 420112) • Ellman's Reagent (Cayman Catalog # 400050) • EIA Buffer Concentrate (10×) (Cayman Catalog # 400060) • Wash Buffer Concentrate (400×) (Cayman Catalog # 400062) • Plastic plate covers (Cayman Catalog # 400012) Procedure
A mouse promyelocytic cell line (MPRO) was used in this assay. These cells are committed immature neutrophils that can be differentiated into mature neutrophils by treatment with 10 μM all-trans retinoic acid for 72 hours.
Following 72 hours of differentiation, cells were stimulated with 1 μM of a calcium ionophore (A23187) in the presence or absence of test compound or vehicle for 1 hour at 37° C. After this time, supernatant was removed from the cells and the LTB4 levels were determined following manufacturer's instructions, using a Leukotriene B4 EIA kit from Cayman (Cat # 5201 11). The negative controls were media samples from differentiated but un-stimulated cells. The compounds were screened at 5 concentrations in quadruplicate starting at 10 μM.

Row | Structure (SMILES) | IC50 [1] [µM] | EC50 [2] [µM] | EC50 [3] [µM]
1 | CONC1CC2(CCC2)Oc2cc(C)c(O)c(C)c21 (stereo in doubt) [(4R)-4-(methoxyamino)-5,7-dimethyl-3,4-dihydrospiro[chromene-2,1′-cyclobutan]-6-ol] | < 0.3 | < 10 | < 5
2 | CONC1CC2(CCC2)Oc2cc(C)c(O)c(C)c21 (stereo in doubt) [(4S)-4-(methoxyamino)-5,7-dimethyl-3,4-dihydrospiro[chromene-2,1′-cyclobutan]-6-ol] | < 0.3 | < 10 | < 5
3 | Cc1c(C)c2c(c(C)c1O)C=C(CO)C1(CCC1)O2 [3-(hydroxymethyl)-5,7,8-trimethylspiro[chromene-2,1′-cyclobutan]-6-ol] | < 0.3 | < 10 | < 5
4 | COCC1=Cc2c(C)c(O)c(C)c(C)c2OC12CCC2 [3-(methoxymethyl)-5,7,8-trimethylspiro[chromene-2,1′-cyclobutan]-6-ol] | < 0.3 | < 10 | < 5
5 | CCONCC1Cc2c(cc(C)c(O)c2C)OC12CCC2 (stereo not shown) [3-[(ethoxyamino)methyl]-5,7-dimethyl-3,4-dihydrospiro-[chromene-2,1′-cyclobutan]-6-ol] | – | < 10 | < 5
6 | CONCC1=Cc2c(cc(C)c(O)c2C)OC12CCC2 [3-[(methoxyamino)methyl]-5,7-dimethylspiro[chromene-2,1′-cyclobutan]-6-ol] | – | < 10 | < 5
7 | COC1Cc2c(C)c(O)c(C)c(C)c2OC12CCC2 (stereo not shown) [3-methoxy-5,7,8-trimethyl-3,4-dihydrospiro[chromene-2,1′-cyclobutan]-6-ol] | – | < 10 | < 5
8 | CCONC1CC2(CCC2)Oc2c(C)c(C)c(O)c(C)c21 (stereo not shown) [4-(ethoxyamino)-5,7,8-trimethyl-3,4-dihydrospiro[chromene-2,1′-cyclobutan]-6-ol] | < 0.3 | < 10 | < 5
9 | Cc1c(C)c2c(c(C)c1O)C(NO)CC1(CCC1)O2 (stereo not shown) [4-(hydroxyamino)-5,7,8-trimethyl-3,4-dihydrospiro[chromene-2,1′-cyclobutan]-6-ol] | < 0.3 | < 10 | < 5
10 | CCc1cc2c(c(CC)c1O)C(NOC)CC1(CCC1)O2 (stereo not shown) [4-(methoxyamino)-5,7-diethyl-3,4-dihydrospiro[chromene-2,1′-cyclobutan]-6-ol] | < 0.3 | < 10 | < 5
11 | CONC1CC2(CCC2)Oc2cc(C)c(O)c(C)c21 (stereo not shown) [4-(methoxyamino)-5,7-dimethyl-3,4-dihydrospiro[chromene-2,1′-cyclobutan]-6-ol] | < 0.3 | < 10 | < 5
12 | CCOC1c2c(C)c(O)c(C)c(C)c2OCC12CCC2 (stereo not shown) [4-ethoxy-5,7,8-trimethylspiro[chroman-3,1′-cyclobutan]-6-ol] | < 0.3 | < 10 | < 5
13 | CCOC1CC2(CCC2)Oc2cc(C)c(O)c(C)c21 (stereo not shown) [4-ethoxy-5,7-dimethyl-3,4-dihydrospiro[chromene-2,1′-cyclobutan]-6-ol] | < 0.3 | < 10 | < 5
14 | COC1c2c(C)c(O)c(C)c(C)c2OC2(CCC2)C1C (stereo not shown) [4-methoxy-3,5,7,8-tetramethyl-3,4-dihydrospiro[chromene-2,1′-cyclobutan]-6-ol] | – | < 10 | < 5
15 | COC1c2c(C)c(O)c(C)c(C)c2OCC12CCC2 (stereo not shown) [4-methoxy-5,7,8-trimethylspiro[chroman-3,1′-cyclobutan]-6-ol] | < 0.3 | < 10 | < 5
16 | COC1CC2(CCC2)Oc2cc(C)c(O)c(C)c21 (stereo not shown) [4-methoxy-5,7-dimethyl-3,4-dihydrospiro[chromene-2,1′-cyclobutan]-6-ol] | < 0.3 | < 10 | < 5
17 | Cc1c(C)c2c(c(C)c1O)CC(O)C1(CCC1)O2 (stereo not shown) [5,7,8-trimethyl-3,4-dihydrospiro[chromene-2,1′-cyclobutane]-3,6-diol] | – | < 10 | < 5
18 | CCc1cc2c(c(CC)c1O)CC(CO)C1(CCC1)O2 (stereo not shown) [5,7-diethyl-3-(hydroxymethyl)spiro[chroman-2,1′-cyclobutan]-6-ol] | – | < 10 | < 5
19 | CCc1cc2c(c(CC)c1O)/C(=N/OC)CC1(CCC1)O2 [5,7-diethyl-6-hydroxyspiro[chromene-2,1′-cyclobutan]-4(3H)-one O-methyloxime] | < 0.3 | < 10 | < 5
20 | CCc1cc2c(c(CC)c1O)/C(=N/O)CC1(CCC1)O2 [5,7-diethyl-6-hydroxyspiro[chromene-2,1′-cyclobutan]-4(3H)-one oxime] | < 0.3 | < 10 | < 5
21 | CC(C)c1cc2c(c(C(C)C)c1O)CCC1(CCC1)O2 [5,7-diisopropyl-3,4-dihydrospiro[chromene-2,1′-cyclobutan]-6-ol] | < 0.3 | < 10 | < 5
22 | Cc1c(O)c(C)c(-c2cnco2)c2c1CCC1(CCC1)O2 [5,7-dimethyl-8-(1,3-oxazol-5-yl)-3,4-dihydrospiro[chromene-2,1′-cyclobutan]-6-ol] | < 0.3 | < 10 | < 5
23 | CCCCc1cc(-c2c(C)c(O)c(C)c3c2OC2(CCC2)CC3)no1 [5,7-dimethyl-8-(5-butyl-isoxazol-3-yl)-3,4-dihydrospiro[chromene-2,1′-cyclobutan]-6-ol] | < 0.3 | < 10 | < 5
24 | Cc1c(C)c2c(c(C)c1O)C(=NO)CC1(CCC1)O2 [6-hydroxy-5,7,8-trimethylspiro[chromene-2,1′-cyclobutan]-4(3H)-one oxime] | – | < 10 | < 5
25 | CCc1cc2c(c(CC)c1O)CC(COC(N)=O)C1(CCC1)O2 (stereo not shown) [(5,7-diethyl-6-hydroxyspiro[chroman-2,1′-cyclobutane]-3-yl)methyl carbamate] | – | < 10 | < 5
